In patent US20080139624A1, “Oral Dosage Form Comprising Rosiglitazone” (priority 2005, published 2008):

Test: pH dependent solubility
Type: physicochemical
Details: acidic conditions of the stomach (around pH 2) vs near neutral conditions of the lower intestine (around pH 7)

SMILES: CN(CCOc1ccc(CC2SC(=O)NC2=O)cc1)c1ccccn1 (stereo not shown) [Compound A, 5-[4-[2-(N-methyl-N-(2 pyridyl)amino)ethoxy]benzyl]thiazolidine-2,4-dione]
- pH dependent solubility: marked pH dependent solubility
